These are literature values, as cited in US10022309B2, “Composition, comprising hydrofluoric acid, for inhibiting dental erosion” ([…], priority 2004, dated 2018).

The conditions of data set [1]: pre-treatment with 1% neutral NaF or 4% TiF4; 50 mM citric acid with calcium and phosphate, pH 3, 30 min; without treatment 4.5 um.
The conditions of data set [2]: aqueous solution.
For data set [3] the following is noted: 24 h treatment (1.2% NaF or Duraphat varnish); then cola-drink pH 2.6 for 4 min.

On to `[F][Ti]([F])([F])[F]` [TiF4, titanium tetrafluoride], for which the mean lesion depth in data set [1] was 2.7 um. For `F` [hydrofluoric acid], in data set [2], the pKa is given as 3.45. As to `[F-].[Na+]` [NaF, sodium fluoride], in data set [1], the mean lesion depth was 3.5 um. In addition, the “hardness of enamel compared with untreated control” value in data set [3] is on record as “improved”.
